Source: US10189841B2, “Purinones as ubiquitin-specific protease 1 inhibitors” (Forma Therapeutics, Inc., priority 2015, dated 2019)

Molecular target: USP1 (construct USP1 (I-785, GG670, 671AA)/UAF1 (I-677)-Flag) (Homo sapiens (Human), UniProt O94782, G670A/G671A)
Assay: Ubiquitin-Rhodamine 110 assay for USP1 activity
Type: biochemical
Conditions: USP1/UAF1 25 pM, Ub-Rh110 25 nM, 30 min preincubation
How it was run: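 Ub-Rh110 (25 nM, ≪Km) cleavage read at ex 485/em 535 in Tris pH 8.0, CaCl2, GSH, Prionex, Triton X-100. The screen used 10 µM compound, 100 pM USP1/UAF1 and 45 min at RT.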

Sequence of USP1 (construct USP1 (I-785, GG670, 671AA)/UAF1 (I-677)-Flag) (O94782 whole entry G670A/G671A): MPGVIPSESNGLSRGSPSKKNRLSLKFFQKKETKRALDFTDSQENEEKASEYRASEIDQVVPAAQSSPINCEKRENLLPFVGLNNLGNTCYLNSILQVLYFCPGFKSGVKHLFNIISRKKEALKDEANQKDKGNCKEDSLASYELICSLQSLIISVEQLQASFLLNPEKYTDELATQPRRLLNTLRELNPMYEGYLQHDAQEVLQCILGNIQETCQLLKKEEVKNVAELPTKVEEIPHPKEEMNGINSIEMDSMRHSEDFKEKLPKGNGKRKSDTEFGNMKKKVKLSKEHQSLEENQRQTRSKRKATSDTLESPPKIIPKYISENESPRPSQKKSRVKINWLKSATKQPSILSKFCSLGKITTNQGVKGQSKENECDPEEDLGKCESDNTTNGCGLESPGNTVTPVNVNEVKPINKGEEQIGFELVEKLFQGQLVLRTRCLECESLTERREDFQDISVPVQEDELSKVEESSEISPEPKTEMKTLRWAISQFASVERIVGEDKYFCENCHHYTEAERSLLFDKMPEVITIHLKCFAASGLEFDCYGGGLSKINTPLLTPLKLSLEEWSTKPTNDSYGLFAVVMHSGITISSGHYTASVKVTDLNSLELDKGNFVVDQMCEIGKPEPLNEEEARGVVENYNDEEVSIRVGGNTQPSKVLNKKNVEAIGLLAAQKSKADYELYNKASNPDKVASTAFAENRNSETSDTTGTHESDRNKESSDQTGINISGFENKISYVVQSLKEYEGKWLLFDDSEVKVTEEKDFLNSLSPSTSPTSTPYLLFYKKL
Sequence of USP1 (construct USP1 (I-785, GG670, 671AA)/UAF1 (I-677)-Flag) (Q8TAF3 whole entry partner): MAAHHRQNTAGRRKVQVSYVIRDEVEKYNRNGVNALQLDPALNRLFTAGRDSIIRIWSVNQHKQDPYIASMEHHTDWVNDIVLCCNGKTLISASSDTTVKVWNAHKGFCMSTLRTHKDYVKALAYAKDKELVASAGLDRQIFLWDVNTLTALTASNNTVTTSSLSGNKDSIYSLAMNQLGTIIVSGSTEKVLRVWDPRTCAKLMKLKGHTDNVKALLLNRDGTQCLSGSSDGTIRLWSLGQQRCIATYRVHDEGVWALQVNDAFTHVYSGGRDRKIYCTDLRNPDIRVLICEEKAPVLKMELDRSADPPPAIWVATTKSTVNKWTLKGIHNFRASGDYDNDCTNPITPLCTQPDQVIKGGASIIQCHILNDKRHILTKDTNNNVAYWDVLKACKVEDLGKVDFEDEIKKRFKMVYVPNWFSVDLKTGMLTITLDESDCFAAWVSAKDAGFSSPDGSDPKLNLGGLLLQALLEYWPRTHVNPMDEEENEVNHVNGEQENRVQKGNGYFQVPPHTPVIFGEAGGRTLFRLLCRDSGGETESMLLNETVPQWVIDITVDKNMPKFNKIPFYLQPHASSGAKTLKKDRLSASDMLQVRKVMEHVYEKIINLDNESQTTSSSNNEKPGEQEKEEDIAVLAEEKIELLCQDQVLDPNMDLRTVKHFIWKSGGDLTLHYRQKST

Compared with `CC(C)c1c(F)cccc1-c1ncc2[nH]c(=O)n(Cc3ccc(-n4ncc5c4CNC5)cc3)c2n1` [Compound I-103, 9-(4-(5,6-dihydropyrrolo[3,4-c]pyrazol-1(4H)-yl)benzyl)-2-(3-fluoro-2-isopropylphenyl)-7,9-dihydro-8H-purin-8-one], `CC(C)c1c(F)cccc1-c1ncc2[nH]c(=O)n(Cc3ccc(-n4cc5c(n4)CNC5)cc3)c2n1` [Compound I-104, 9-(4-(5,6-dihydropyrrolo[3,4-c]pyrazol-2(4H)-yl)benzyl)-2-(3-fluoro-2-isopropylphenyl)-7,9-dihydro-8H-purin-8-one] is higher in IC50: 50 to 200 nM for the first, 200 to 2000 nM for the second. The first is the more potent here.

`CC(C)c1ncccc1-c1ncc2c(n1)n(Cc1ccc(-c3nc(C(F)(F)F)cn3C)cc1)c(=O)n2C` [Compound I-105, 2-(2-Isopropylpyridin-3-yl)-7-methyl-9-(4-(1-methyl-4-(trifluoromethyl)-1H-imidazol-2-yl)benzyl)-7,9-dihydro-8H-purin-8-one] and `CC(C)c1ncccc1-c1ncc2c(n1)n(Cc1ccc(-c3nc(C(F)(F)F)cn3C3CC3)cc1)c(=O)n2C` [Compound I-114, 9-(4-(1-cyclopropyl-4-(trifluoromethyl)-1H-imidazol-2-yl)benzyl)-2-(2-isopropylpyridin-3-yl)-7-methyl-7,9-dihydro-8H-purin-8-one] cannot be ordered by IC50: under 50 nM for the first, under 50 nM for the second.

`CC(C)c1ccccc1-c1ncc2c(n1)n(Cc1ccc(-c3nc(C(F)(F)F)cn3CCO)cc1)c(=O)n2C` [Compound I-106, 9-(4-(1-(2-Hydroxyethyl)-4-(trifluoromethyl)-1H-imidazol-2-yl)benzyl)-2-(2-isopropylphenyl)-7-methyl-7,9-dihydro-8H-purin-8-one] and `CC(C)c1ccccc1-c1ncc2c(n1)n(Cc1ccc(-c3nc(C(F)(F)F)cn3C3COC3)cc1)c(=O)n2C` [Compound I-110, 2-(2-isopropylphenyl)-7-methyl-9-(4-(1-(oxetan-3-yl)-4-(trifluoromethyl)-1H-imidazol-2-yl)benzyl)-7,9-dihydro-8H-purin-8-one] cannot be ordered by IC50: under 50 nM for the first, under 50 nM for the second.

First: CC(C)c1ccccc1-c1ncc2c(n1)n(Cc1ccc(-n3cccn3)cc1)c(=O)n2CCN(C)C [Compound I-107, 9-(4-(1H-pyrazol-1-yl)benzyl)-7-(2-(dimethylamino)ethyl)-2-(2-isopropylphenyl)-7,9-dihydro-8H-purin-8-one]
Second: Cc1cc(C(F)(F)F)nn1-c1ccc(Cn2c(=O)n(C)c3cnc(-c4cccnc4C(C)C)nc32)cc1 [Compound I-113, 2-(2-isopropylpyridin-3-yl)-7-methyl-9-(4-(5-methyl-3-(trifluoromethyl)-1H-pyrazol-1-yl)benzyl)-7,9-dihydro-8H-purin-8-one]
The IC50 of the first is higher: 200 to 2000 nM for the first, under 50 nM for the second.

First: CC(C)c1ncccc1-c1ncc2c(n1)n(C1(c3ccc(-c4nc(C(F)(F)F)cn4C)cc3)CC1)c(=O)n2C [Compound I-108, 2-(2-isopropylpyridin-3-yl)-7-methyl-9-(1-(4-(1-methyl-4-(trifluoromethyl)-1H-imidazol-2-yl)phenyl)cyclopropyl)-7,9-dihydro-8H-purin-8-one]
Second: Cc1cc(N2CCC2)nn1-c1ccc(Cn2c(=O)n(C)c3cnc(-c4cccnc4C(C)C)nc32)cc1 [Compound I-109, 9-(4-(3-(azetidin-1-yl)-5-methyl-1H-pyrazol-1-yl)benzyl)-2-(2-isopropylpyridin-3-yl)-7-methyl-7,9-dihydro-8H-purin-8-one]
The IC50 of the first is lower: under 50 nM for the first, 50 to 200 nM for the second. The first is the more potent here.

First: Cc1cc(C)n([C@H]2CC[C@@H](Cn3c(=O)n(C)c4cnc(-c5ccccc5C(C)C)nc43)CC2)n1 [Compound I-111, 9-(((1s,4s)-4-(3,5-dimethyl-1H-pyrazol-1-yl)cyclohexyl)methyl)-2-(2-isopropylphenyl)-7-methyl-7,9-dihydro-8H-purin-8-one]
Second: Cc1cc(C)n([C@H]2CC[C@H](Cn3c(=O)n(C)c4cnc(-c5ccccc5C(C)C)nc43)CC2)n1 [Compound I-112, 9-(((1r,4r)-4-(3,5-dimethyl-1H-pyrazol-1-yl)cyclohexyl)methyl)-2-(2-isopropylphenyl)-7-methyl-7,9-dihydro-8H-purin-8-one]
The IC50 of the first is lower: 50 to 200 nM for the first, over 2000 nM for the second.
